This series is described as follows: exhalation test (13CO2/12CO2, carbon dioxide gas Δ value) after oral administration to beagle dogs.

Consider `O=C([O-])O.[Na+]` [sodium hydrogencarbonate solution, sodium hydrogencarbonate], for which, under “male beagle dogs without propantheline, n=4, FIG. 4”, the “excretion of labeled carbon dioxide gas from the body, in words” value was “rapidly excreted from the body”. In addition, the “time of maximum of the carbon dioxide gas Δ value, in words” value (male beagle dogs, n=4, control test, 100 mg NaH13CO3, FIG. 4) is reported as “immediately after administration”. Consider `CC(C)[N+](C)(CCOC(=O)C1c2ccccc2Oc2ccccc21)C(C)C` [propantheline], for which, where the note is “beagle dogs given the capsule of Example 8 granules after propantheline, n=4”, the “excretion of labeled carbon dioxide gas in the exhalation in the group receiving propantheline versus untreated group” value is recorded as “slow compared to that seen in the beagle dogs of the untreated group”.

The values above are taken from patent US7018613B2, “Preparations for evaluating eliminative ability of stomach” (Otsuka Pharmaceutical Co., Ltd., priority 2000, dated 2006).
